Assays:
[1] = target: T1, T4 pyrimidine dimer DNA glycosylase (T4-pdg) (Enterobacteria phage T4, UniProt P04418); assay: UV-irradiated plasmid nicking assay; format: biochemical; details: 40 µM inhibitor, 15 min; read-out: inhibition of T4-pdg activity (reduction in nicks per plasmid)
T1 construct: made in house
Method: T4-pdg activity was assayed by a plasmid nicking assay with minor modifications of a previously described method, [27]. Supercoiled pBR322 plasmid was irradiated with 254 nm ultraviolet (UV) light (100 µW/cm^2) for 98 sec to produce approximately 10 thymine dimers per plasmid molecule. Irradiated plasmid (10 nM) was then incubated in the presence or absence of inhibitors with 130 pM active T4-pdg, as assessed by […] trapping. Reactions were started by addition of DNA, incubated for 15 min at 37°C in reaction buffer (10 mM Tris pH 8.0, 1 mM EDTA, 125 mM NaCl, 100 µg/ml BSA), and stopped by the addition of SDS to a final concentration of 1%. Plasmid DNAs (form I, II and III corresponding to supercoiled, nicked circular and linear, respectively) were resolved on a 0.9% agarose gel and visualized with 0.5 µg/ml ethidium bromide. Gel images were captured on a ChemiImager 5500 (Alpha Innotech, Santa Clara, CA) gel documentation system and densitometry was performed using Image J software. Percent remaining form I DNA was calculated by applying a factor of 1.42 to the form I band intensity and then dividing form I by the sum of form I, II and III. The number of nicks per molecule were estimated based on a Poisson distribution, in which nicks per molecule = -ln (mass fraction of form I DNA remaining), and inhibition of activity was measured as the percentage reduction in the number of nicks per plasmid molecule compared to reactions without inhibitor.
In humans, several glycosylases, including OGG1, NTH1, NEIL2, and NEIL3 may participate in the removal of a wide variety of oxidized bases. […] To address this question, assays were designed to measure inhibition of OGG1 and NTH1, as well as the Escherichia coli glycosylase-AP lyase, FPG. In order to compare the relative efficiencies of inhibition between NEIL1 and these other glycosylase/AP lyases, it was necessary to identify common DNA substrates and pair-wise analyze inhibition data. To compare inhibition of NEIL1 versus NTH1, oligodeoxynucleotides were synthesized that contained a site-specific thymine glycol (TG) adduct, while comparative inhibition data for OGG1 and FPG were collected using an oligodeoxynucleotide containing a site-specific 8-oxo-Gua. In control reactions (no inhibitor added), each enzyme generated the expected incised products, confirming the validity of the assay. […] Additionally, experiments were designed to test whether compounds P2, P6, P7, and P8 could inhibit a pyrimidine dimer-specific glycosylase/AP lyase, T4 pyrimidine dimer DNA glycosylase (T4-pdg) that also has an associated AP lyase activity, using an UV-irradiated plasmid nicking assay. […]

NEIL1 = target: T2, NEIL1 (Homo sapiens, UniProt Q96FI4); assay: gel-based incision assay of oligodeoxynucleotides containing site-specific base lesions; format: biochemical; details: polyacrylamide gel, reaction quenched at 20 min
T2 construct: made in house
Method: The 384-well fluorogenic assay was carried out in a 20 µL reaction mixture in 20 mM Tris-HCl pH 8.0, 100 mM KCl, and 0.1% BSA, with 5 nM active enzyme and 50 nM substrate. Possible inhibitors were incubated with the enzyme for at least 5 min at room temperature in a black, low-volume 384-well plate before addition of an equal volume of substrate to start the reaction. The plates were spun for 30 s at 1000 rcf to remove bubbles. The reactions were incubated at 37°C and fluorescence data collected on an Infinite M200 (Tecan, Mannedorf, Switzerland) equipped with standard optics (excitation filter 525 nm, and emission filter 598 nm). For the gel-based assay, reactions were initiated as described for the fluorogenic assay, but quenched with 20 µL 95% formamide at 20 min. The products were separated by electrophoresis through a 15% polyacrylamide gel containing 8 M urea and visualized by a Typhoon scanner (GE Life Sciences, Piscataway, NJ). The fraction of cleaved product was measured using ImageQuant software and analyzed using GraphPad Prism 6. […]

[2] = system: NEIL1, NTH1, OGG1 and FPG; assay: glycosylase/AP lyase cleavage assays with common substrates (Tg, 8-oxo-Gua) across glycosylases; format: biochemical, human; Escherichia coli (FPG); details: all enzymes except for NTH1
Method: The 384-well fluorogenic assay was carried out in a 20 µL reaction mixture in 20 mM Tris-HCl pH 8.0, 100 mM KCl, and 0.1% BSA, with 5 nM active enzyme and 50 nM substrate. Possible inhibitors were incubated with the enzyme for at least 5 min at room temperature in a black, low-volume 384-well plate before addition of an equal volume of substrate to start the reaction. The plates were spun for 30 s at 1000 rcf to remove bubbles. The reactions were incubated at 37°C and fluorescence data collected on an Infinite M200 (Tecan, Mannedorf, Switzerland) equipped with standard optics (excitation filter 525 nm, and emission filter 598 nm). For the gel-based assay, reactions were initiated as described for the fluorogenic assay, but quenched with 20 µL 95% formamide at 20 min. The products were separated by electrophoresis through a 15% polyacrylamide gel containing 8 M urea and visualized by a Typhoon scanner (GE Life Sciences, Piscataway, NJ). The fraction of cleaved product was measured using ImageQuant software and analyzed using GraphPad Prism 6.
In humans, several glycosylases, including OGG1, NTH1, NEIL2, and NEIL3 may participate in the removal of a wide variety of oxidized bases. […] To address this question, assays were designed to measure inhibition of OGG1 and NTH1, as well as the Escherichia coli glycosylase-AP lyase, FPG. […]

T1 sequence (P04418 whole entry): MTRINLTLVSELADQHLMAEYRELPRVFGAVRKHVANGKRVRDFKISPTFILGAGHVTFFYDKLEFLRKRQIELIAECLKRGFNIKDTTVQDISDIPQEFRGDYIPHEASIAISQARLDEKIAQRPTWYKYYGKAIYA
T2 sequence (Q96FI4 whole entry): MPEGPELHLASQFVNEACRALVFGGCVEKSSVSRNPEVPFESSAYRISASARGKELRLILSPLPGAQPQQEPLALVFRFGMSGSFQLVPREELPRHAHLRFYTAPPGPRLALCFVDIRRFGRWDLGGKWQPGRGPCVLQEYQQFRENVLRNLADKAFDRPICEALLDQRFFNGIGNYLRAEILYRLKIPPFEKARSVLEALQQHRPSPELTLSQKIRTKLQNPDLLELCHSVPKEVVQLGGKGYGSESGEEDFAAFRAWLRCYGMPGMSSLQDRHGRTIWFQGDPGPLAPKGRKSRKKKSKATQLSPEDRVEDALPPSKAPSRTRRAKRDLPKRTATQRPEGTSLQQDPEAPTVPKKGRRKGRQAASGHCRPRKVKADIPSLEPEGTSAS

Structure (SMILES): Cc1nc2ccc(Nc3nc(Nc4c(C)cc(/C=C/C#N)cc4C)nc4[nH]cnc34)cc2s1 [Purine P6]
- inhibition at 40 µM [1]: 32%
- IC50 (NEIL1): 9.2 µM

Structure (SMILES): Cc1cc(/C=C/C#N)cc(C)c1Nc1nc(Nc2ccc3c(c2)OCO3)c2nc[nH]c2n1 [Purine P8]
- inhibition at 40 µM [1]: 14%
- relative inhibition among the compounds [2]: poorest inhibition
- IC50 (NEIL1): 15.2 µM

Structure (SMILES): Cc1cc(/C=C/C#N)cc(C)c1Nc1nc(Nc2ccc3scnc3c2)c2nc[nH]c2n1 [Purine P2]
- inhibition at 40 µM [1]: < 1%
- IC50 (NEIL1): 28 µM

Structure (SMILES): Cc1cc(/C=C/C#N)cc(C)c1Nc1nc(Nc2ccc3c(c2)CCC3)c2nc[nH]c2n1 [Purine P7]
- inhibition at 40 µM [1]: 13%
- IC50 (NEIL1): 11.7 µM

Source: paper PMC3857224, “Inhibition of DNA Glycosylases via Small Molecule Purine Analogs” (PLoS ONE, 2013)
